Test results as given in ChEMBL document CHEMBL3352016, “Natural hydrazine-containing compounds: Biosynthesis, isolation, biological activities and synthesis” (Bioorg Med Chem, 2014).
Values belong to the molecule of their own block, whether it stands above or below them.

Columns and labels:
[1] = Anticancer activity against human Caco2 cells; format: functional, cell-based; conditions: Caco-2
[2] = Anticancer activity against human MDA231 cells; format: functional, cell-based; conditions: MDA-MB-231
A-375 = assay: Anticancer activity against human A375 cells; format: functional, cell-based
[3] = Inhibition of Escherichia coli DnaG primase
[4] = Anticancer activity against human HCT116 cells; format: functional, cell-based; conditions: HCT-116

- IC50 [1]: 81 µM
Structure (SMILES): COc1cc(/C=C/C(=O)NCCc2c[nH]c3ccc(O)cc23)ccc1O [N-FERULOYL SEROTONIN]

- IC50 [2]: 5 µM
Structure (SMILES): CCCC/C=C\N(NC(C)=O)C(=O)CCC1=CCOC1=O [GERALCIN B]

- IC50 (A-375): 1.6 µM
Structure (SMILES): N[C@@H](CCC(=O)NNc1ccc(O)cc1)C(=O)O [XANTHODERMINE]

- IC50 [3]: 700 µM
- IC50 [4]: 0.8 µM
Structure (SMILES): CCCC/C=C\N(NC(C)=O)C(=O)C(CO)/N=[N+](\[O-])CCCCCC (stereo not given) [GERALCIN C]
